ChEMBL document CHEMBL4706692, “CC-90009: A Cereblon E3 Ligase Modulating Drug That Promotes Selective Degradation of GSPT1 for the Treatment of Acute Myeloid Leukemia” (J Med Chem, 2021)
pIC50: −log10 of the molar value.

Assays:
THLE-2 = assay: Cytotoxicity against human THLE-2 cells assessed as cell viability incubated for 72 hrs by cell titer glo assay; type: cell-based; conditions: THLE-2, 72 h
[1] = Selectivity index, ratio of IC50 for cytotoxicity against human THLE-2 cells to IC50 for antiproliferative activity against human KG-1 cells
KG-1 = assay: Antiproliferative activity against human KG-1 cells assessed as reduction in cell viability incubated for 72 hrs by cell titer glo assay; type: functional, cell-based; conditions: KG-1, 72 h

SMILES | pIC50 (THLE-2) | Ratio IC50 [1] | pIC50 (KG-1)
O=C1CCC(N2Cc3cc(CNC(=O)C(=O)c4ccccc4)ccc3C2=O)C(=O)N1 (stereo not given) | 6.71 | 22 | 8.05
O=C1CCC(N2Cc3cc(CNC(=O)Nc4ccccc4)ccc3C2=O)C(=O)N1 (stereo not given) | 7.22 | 4 | 7.82
CC(C)(C(=O)NCc1ccc2c(c1)CN(C1CCC(=O)NC1=O)C2=O)c1ccccc1 (stereo not given) | < 5.00 |  | < 5.00
O=C1CCC(N2Cc3cc(CNC(=O)c4ccccc4)ccc3C2=O)C(=O)N1 (stereo not given) | < 5.00 |  | < 5.00
